# Assay results taken from PMC11859264, “Discovery of a Novel Multitarget Analgesic Through an In Vivo-Guided Approach” (Pharmaceuticals, 2025).
# Experiments:
# [1] = molecular target: T1, Transporter, Dopamine (DAT) (Homo sapiens, UniProt Q01959); assay: Radioligand binding, [125I] RTI-55, Eurofins
# T1 construct: host or cells: CHO-S cells
# [2] = molecular target: T2, Transporter, Norepinephrine (NET) (Homo sapiens, UniProt P23975); assay: Radioligand binding, [125I] RTI-55, Eurofins
# T2 construct: host or cells: MDCK cells
# [3] = molecular target: Serotonin 5-HT2A (Homo sapiens, UniProt P28223); assay: Radioligand binding, [3H] Ketanserin, Eurofins
# [4] = In vivo pharmacokinetic study; design: species or system Sprague–Dawley rats; conditions: rats; for AUC(0-inf) / AUC(0-t) / CL/F / Cmax / Tmax / half-life: male, Sprague-Dawley, rat, plasma
# Experimental: The in vivo pharmacokinetics parameters of compound 29 were measured in rats over 24 h following intraperitoneal (IP) and oral (PO) administration (Figure 4). These experiments were conducted to evaluate the compound’s absorption, distribution, metabolism, and excretion profiles under different routes of administration. Male Sprague–Dawley rats (n = 3 per group, weight 200–250 g) were fasted overnight but had free access to water. All animal experiments were conducted in accordance with institutional guidelines. For intraperitoneal (IP) administration, compound 29 was dissolved in saline and DMSO, while for oral (PO) administration, the compound was suspended in 0.5% carboxymethyl cellulose (CMC). All solutions were freshly prepared and filtered before administration to ensure homogeneity. Compound 29 was administered at 5 mg/kg via intraperitoneal injection or at 10 mg/kg by oral gavage. […] Blood was collected into EDTA-coated tubes and centrifuged at 2000× g for 10 min at 4 °C to separate plasma. Plasma samples were stored at −80 °C until analysis. Before analysis, plasma samples were thawed on ice, and proteins were precipitated using acetonitrile containing an internal standard. The mixture was centrifuged, and the supernatant was collected for analysis. Plasma concentrations of compound 29 were determined using a validated LC-MS/MS method. […] Quantification was performed in Multiple Reaction Monitoring (MRM) mode using Xcalibur software (version 4.4). Pharmacokinetic parameters, including AUClast, AUCinf, Cmax, Tmax, t1/2, Cl/F, and Vd, were calculated using non-compartmental analysis (NCA) with Phoenix WinNonlin software 8.5.2 (Certara, Radnor, PA, USA).
# [5] = molecular target: T3, hERG (Homo sapiens, UniProt Q12809); assay: in vitro
# [6] = molecular target: CYP2C9 (Homo sapiens, UniProt P11712); assay: in vitro; conditions: microsomes, pH 7.4, CYP2C9 % of inhibition
# [7] = molecular target: T3, hERG; assay: biochemical
# T2 sequence (P23975 whole entry): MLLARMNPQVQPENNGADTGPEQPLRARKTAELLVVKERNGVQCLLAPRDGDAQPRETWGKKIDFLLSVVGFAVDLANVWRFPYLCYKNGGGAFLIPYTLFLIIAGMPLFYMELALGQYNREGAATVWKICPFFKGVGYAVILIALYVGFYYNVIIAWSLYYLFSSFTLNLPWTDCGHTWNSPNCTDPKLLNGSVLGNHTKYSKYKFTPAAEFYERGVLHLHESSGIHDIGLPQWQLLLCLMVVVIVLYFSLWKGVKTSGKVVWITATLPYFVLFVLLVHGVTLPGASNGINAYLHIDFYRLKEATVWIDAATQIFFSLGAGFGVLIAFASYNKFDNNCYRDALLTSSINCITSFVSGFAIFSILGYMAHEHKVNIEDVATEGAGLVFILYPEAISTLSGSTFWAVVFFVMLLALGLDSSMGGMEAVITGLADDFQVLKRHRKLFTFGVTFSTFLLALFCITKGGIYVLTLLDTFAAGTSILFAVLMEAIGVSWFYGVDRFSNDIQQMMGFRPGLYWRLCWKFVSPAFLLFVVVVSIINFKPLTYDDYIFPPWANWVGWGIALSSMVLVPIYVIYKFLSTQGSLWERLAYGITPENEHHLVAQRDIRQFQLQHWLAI
# Serotonin 5-HT2A, sequence (P28223 whole entry): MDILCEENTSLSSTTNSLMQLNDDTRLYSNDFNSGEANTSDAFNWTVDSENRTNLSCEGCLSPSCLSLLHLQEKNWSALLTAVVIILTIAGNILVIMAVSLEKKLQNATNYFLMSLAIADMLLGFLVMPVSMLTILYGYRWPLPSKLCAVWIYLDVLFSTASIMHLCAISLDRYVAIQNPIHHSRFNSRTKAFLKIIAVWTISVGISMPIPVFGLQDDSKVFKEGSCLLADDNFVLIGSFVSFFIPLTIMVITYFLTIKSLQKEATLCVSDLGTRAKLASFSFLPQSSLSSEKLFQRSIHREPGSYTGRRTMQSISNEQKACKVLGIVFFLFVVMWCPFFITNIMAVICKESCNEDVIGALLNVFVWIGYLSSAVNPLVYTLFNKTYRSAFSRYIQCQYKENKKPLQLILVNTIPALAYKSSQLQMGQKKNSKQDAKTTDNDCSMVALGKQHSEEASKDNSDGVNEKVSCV
# T1 sequence (Q01959 whole entry): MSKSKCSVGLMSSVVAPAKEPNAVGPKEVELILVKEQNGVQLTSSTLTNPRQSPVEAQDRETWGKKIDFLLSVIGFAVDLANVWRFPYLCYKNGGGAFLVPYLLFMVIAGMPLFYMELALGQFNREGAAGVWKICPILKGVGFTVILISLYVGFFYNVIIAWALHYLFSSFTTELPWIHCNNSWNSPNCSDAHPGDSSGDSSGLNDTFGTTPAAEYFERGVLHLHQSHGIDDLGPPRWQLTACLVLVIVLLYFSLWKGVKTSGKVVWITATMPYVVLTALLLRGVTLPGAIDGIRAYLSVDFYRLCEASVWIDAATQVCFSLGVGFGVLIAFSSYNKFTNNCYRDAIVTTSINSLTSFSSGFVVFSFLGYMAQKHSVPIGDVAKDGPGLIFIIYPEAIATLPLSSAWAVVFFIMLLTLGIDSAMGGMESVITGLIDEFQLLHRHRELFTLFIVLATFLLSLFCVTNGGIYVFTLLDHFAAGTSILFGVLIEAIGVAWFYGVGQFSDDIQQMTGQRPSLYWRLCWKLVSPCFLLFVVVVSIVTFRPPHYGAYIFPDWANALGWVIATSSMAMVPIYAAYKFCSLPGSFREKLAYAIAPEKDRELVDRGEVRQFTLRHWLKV
# T3 sequence (Q12809 whole entry): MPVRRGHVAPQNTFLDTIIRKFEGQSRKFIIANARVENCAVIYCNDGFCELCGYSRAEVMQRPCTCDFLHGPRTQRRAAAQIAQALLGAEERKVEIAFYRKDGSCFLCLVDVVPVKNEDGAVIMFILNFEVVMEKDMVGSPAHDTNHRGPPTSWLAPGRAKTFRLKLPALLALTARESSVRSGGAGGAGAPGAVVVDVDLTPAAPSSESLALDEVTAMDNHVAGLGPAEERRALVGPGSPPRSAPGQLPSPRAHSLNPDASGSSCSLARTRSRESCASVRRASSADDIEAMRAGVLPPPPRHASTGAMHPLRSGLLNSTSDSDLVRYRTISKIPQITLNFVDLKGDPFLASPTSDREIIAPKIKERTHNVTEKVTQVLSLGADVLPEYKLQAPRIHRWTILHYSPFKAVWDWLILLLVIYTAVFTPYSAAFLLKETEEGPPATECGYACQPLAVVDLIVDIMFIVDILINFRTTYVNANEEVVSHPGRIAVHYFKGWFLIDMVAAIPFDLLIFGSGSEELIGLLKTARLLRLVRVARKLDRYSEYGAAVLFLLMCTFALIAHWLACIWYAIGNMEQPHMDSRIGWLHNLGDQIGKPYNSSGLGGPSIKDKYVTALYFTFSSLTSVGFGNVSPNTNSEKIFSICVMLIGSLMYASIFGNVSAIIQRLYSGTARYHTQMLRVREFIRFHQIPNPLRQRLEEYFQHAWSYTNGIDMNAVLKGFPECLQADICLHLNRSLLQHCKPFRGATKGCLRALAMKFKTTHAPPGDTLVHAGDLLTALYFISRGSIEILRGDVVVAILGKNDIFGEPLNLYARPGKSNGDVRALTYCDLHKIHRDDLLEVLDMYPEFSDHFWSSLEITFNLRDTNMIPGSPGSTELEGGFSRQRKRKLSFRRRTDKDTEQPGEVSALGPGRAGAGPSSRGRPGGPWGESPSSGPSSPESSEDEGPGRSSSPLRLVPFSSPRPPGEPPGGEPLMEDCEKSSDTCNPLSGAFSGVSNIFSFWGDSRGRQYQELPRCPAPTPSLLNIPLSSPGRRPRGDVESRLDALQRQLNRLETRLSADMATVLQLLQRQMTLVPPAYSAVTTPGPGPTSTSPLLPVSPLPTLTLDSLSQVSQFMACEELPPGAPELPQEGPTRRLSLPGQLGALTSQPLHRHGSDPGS
# CYP2C9, sequence (P11712 whole entry): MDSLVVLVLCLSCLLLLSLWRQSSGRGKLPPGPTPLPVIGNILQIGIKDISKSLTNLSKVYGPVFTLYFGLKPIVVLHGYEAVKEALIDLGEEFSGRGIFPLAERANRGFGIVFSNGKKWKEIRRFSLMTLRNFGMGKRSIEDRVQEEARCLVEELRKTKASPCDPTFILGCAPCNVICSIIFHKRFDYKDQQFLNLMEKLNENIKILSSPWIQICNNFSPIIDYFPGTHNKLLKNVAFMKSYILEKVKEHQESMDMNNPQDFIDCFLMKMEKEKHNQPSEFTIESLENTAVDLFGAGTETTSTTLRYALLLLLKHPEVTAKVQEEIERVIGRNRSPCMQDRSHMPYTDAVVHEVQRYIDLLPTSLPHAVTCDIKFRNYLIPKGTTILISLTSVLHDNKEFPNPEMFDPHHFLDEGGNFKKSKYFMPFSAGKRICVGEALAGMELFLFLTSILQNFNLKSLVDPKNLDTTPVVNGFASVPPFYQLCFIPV
smiles,measurement,setting,value
"N#Cc1ccc2[nH]cc(C(=O)NCCN3CCN(c4ccc5ccccc5n4)CC3)c2c1 [Compound 29, 5-Cyano-N-(2-(4-(quinolin-2-yl)piperazin-1-yl)ethyl)-1H-indole-3-carboxamide]",nH (Hill coefficient),[1]; DAT,0.88
same,Ki,"[1]; DAT, Cheng and Prusoff",46 nM
same,IC50,"[1]; DAT, human recombinant CHO-S cells",57 nM
same,times more potent at DAT compared to vanoxerine,[1]; ratio of Ki values,19
same,nH (Hill coefficient),[2]; NET,0.73
same,Ki,"[2]; NET, Cheng and Prusoff",380 nM
same,IC50,"[2]; NET, human recombinant MDCK cells",380 nM
same,times more potent at NET compared to desipramine,[2]; ratio of Ki values,3
same,nH (Hill coefficient),[3]; Serotonin 5-HT2A,0.88
same,Ki,"[3]; Serotonin 5-HT2A, Cheng and Prusoff",150 nM
same,IC50,"[3]; Serotonin 5-HT2A, human recombinant CHO-Ki cells",520 nM
same,times the activity of reference compound ketanserin,[3]; ratio of Ki values,1.53
same,AUC(0-inf),"[4]; IP, 5 mg/kg",1380 ng·h/mL
same,AUC(0-t),"[4]; IP, 5 mg/kg",1030 ng·h/mL
same,CL/F,"[4]; IP, 5 mg/kg",64.7 mL/min/kg
same,Cmax,"[4]; IP, 5 mg/kg",208 ng/mL
same,Tmax,"[4]; IP, 5 mg/kg",2.83 h
same,half-life,"[4]; IP, 5 mg/kg",3.49 h
same,AUC(0-inf),"[4]; PO, 10 mg/kg",430 ng·h/mL
same,AUC(0-t),"[4]; PO, 10 mg/kg",407 ng·h/mL
same,CL/F,"[4]; PO, 10 mg/kg",401 mL/min/kg
same,Cmax,"[4]; PO, 10 mg/kg",113 ng/mL
same,Tmax,"[4]; PO, 10 mg/kg",1.5 h
same,half-life,"[4]; PO, 10 mg/kg",1.67 h
same,Vd,"[4]; IP, 5 mg/kg",17.9 L/kg
same,Vd,"[4]; PO, 10 mg/kg",57.4 L/kg
same,"inhibition at 4 h, 10 µM",[5],52.7%
same,"inhibition at 15 min, 10 µM",[6],< 50%
same,IC50,[7],~10000 nM
